# Data published in PMC3806773, “Discovery of P1736, a Novel Antidiabetic Compound That Improves Peripheral Insulin Sensitivity in Mice Models” (PLoS ONE, 2013).
# Entries after “also recorded” stand apart in the source; their conditions may differ. Structures can show the parent of a compound that is named as a salt. Marks after values point to notes of the source that are not given here.
# Tests used:
# human PPARγ receptor = target: T1, human PPARγ receptor (Homo sapiens, UniProt P37231); test: PPARγ transactivation luciferase reporter gene assay in HEK-293 cells; conditions: upto 10 μM
# T1 sequence (P37231 238-503 limits assumed): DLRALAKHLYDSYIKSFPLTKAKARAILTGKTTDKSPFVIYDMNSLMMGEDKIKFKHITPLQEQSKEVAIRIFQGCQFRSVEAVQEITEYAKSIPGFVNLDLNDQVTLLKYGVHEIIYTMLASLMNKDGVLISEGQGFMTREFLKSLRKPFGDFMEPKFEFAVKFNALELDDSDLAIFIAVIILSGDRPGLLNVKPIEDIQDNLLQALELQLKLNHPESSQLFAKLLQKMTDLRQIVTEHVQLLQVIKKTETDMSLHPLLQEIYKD
# ob/ob mice [1] = test: Antidiabetic activity in ob/ob mice; type: in vivo; conditions: 5 mg/kg, 10 days
# Wistar rats = test: Plasma volume in rats (Evans Blue Dye method)
# GLUT-4 = GLUT-4 translocation in insulin resistant 3T3 adipocytes (immunofluorescence); conditions: 4 days, 200nM insulin stimulated
# db/db mice [2] = test: Antidiabetic activity in db/db mice, once daily oral dosing; type: in vivo
# Experimental: After two weeks of acclimatization, db/db mice were deprived of food for 4h. Their weights were measured and blood was obtained by retro-orbital puncture for the determination of plasma glucose. The animals were randomized into groups (7-10/group) based on body weight and plasma glucose levels. Animals were dosed orally once a day, between 9.00 -10.00am for 15 consecutive days, with either P1736 (150mg/kg) or metformin (150mg/kg) or 0.5% carboxy methyl cellulose (CMC) vehicle. The dose of 150 mg/kg was chosen for once-a-day dosing of P1736, on the basis of its pharmacokinetic profile and to maintain high plasma concentrations. Body weight was measured daily. On days 10 and 15, blood samples were collected at the end of the 4h fasting after drug administration. Plasma samples were analysed for biochemical parameters, by enzymatic methods using autoanalyser 902(Hitachi instruments, Japan). Plasma adiponectin levels were measured using mouse ELISA kits (Millipore Inc. USA).
# [3] = tested on: soleus muscles of ob/ob mice; test: Ex vivo muscle glucose uptake in ob/ob mice; conditions: for Glucose Uptake in soleus muscle (% Increase): ex vivo after chronic administration
# Experimental: (§1) On day 9, food was withheld for 4 h and blood was collected for the analysis of plasma chemistry and plasma insulin levels. On days 12 and 13, 3-4 animals from each group were sacrificed and soleus muscles were excised. Radiolabelled glucose uptake was measured in the isolated soleus muscles by the method of Zierath and colleagues. Plasma Insulin was estimated using mouse ELISA kit (Linco, USA)
# [4] = tested on: adenosine mono phosphate activated kinase (AMPK); test: AMPK activity (MDS Pharma); type: biochemical
# Experimental: (§2) Transactivation activity against human PPARγ and PPARα receptors was determined using luciferase reporter gene assays in the Laboratory of CloneGen Biotechnology, Michigan, USA. Activities of protein tyrosine phosphatase-1b (PTP-1B) and adenosine mono phosphate activated kinase (AMPK) were evaluated at MDS Pharma, Korea. Evaluation of activity against human 11-Hydroxysteroid dehydrogenase-1 was outsourced to University of Edinburg, UK which used a cell based method.
# ob/ob mice [5] = test: Antidiabetic activity in ob/ob mice; type: in vivo; conditions: for Liver weight: vehicle 4.3 ± 0.2; for Plasma AST: vehicle 468 ± 38; for Plasma ALT: vehicle 740 ± 71
# Experimental: After one week of acclimatization, ob/ob mice (8/group) were dosed orally, twice daily for 10 consecutive days, with either P1736 (100 or 200 mg/kg) or vehicle. Rest of the procedure is exactly the same as that used for db/db mice and as described above.
# as §1
# [6] = target: T2, human 11<beta>-Hydroxysteroid dehydrogenase-1 (Homo sapiens, UniProt P28845); test: 11beta-HSD1 cell based inhibition assay; conditions: concentration not given
# T2 construct: University of Edinburgh, UK (outsourced)
# T2 sequence (P28845 whole entry): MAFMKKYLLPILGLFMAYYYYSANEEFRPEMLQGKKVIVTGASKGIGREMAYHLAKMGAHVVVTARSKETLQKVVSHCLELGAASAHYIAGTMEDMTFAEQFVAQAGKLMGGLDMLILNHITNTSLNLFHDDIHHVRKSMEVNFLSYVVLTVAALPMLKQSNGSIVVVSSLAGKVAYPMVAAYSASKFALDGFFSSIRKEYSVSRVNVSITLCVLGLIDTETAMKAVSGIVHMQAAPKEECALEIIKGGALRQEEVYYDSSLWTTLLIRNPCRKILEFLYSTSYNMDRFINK
# Experimental: as §2
# [7] = target: T3, protein tyrosine phosphatase-1b (PTP-1B) (Homo sapiens, UniProt P18031); test: PTP-1B activity (MDS Pharma); type: biochemical
# T3 construct: MDS Pharma, Korea (contract laboratory)
# T3 sequence (P18031 1-435): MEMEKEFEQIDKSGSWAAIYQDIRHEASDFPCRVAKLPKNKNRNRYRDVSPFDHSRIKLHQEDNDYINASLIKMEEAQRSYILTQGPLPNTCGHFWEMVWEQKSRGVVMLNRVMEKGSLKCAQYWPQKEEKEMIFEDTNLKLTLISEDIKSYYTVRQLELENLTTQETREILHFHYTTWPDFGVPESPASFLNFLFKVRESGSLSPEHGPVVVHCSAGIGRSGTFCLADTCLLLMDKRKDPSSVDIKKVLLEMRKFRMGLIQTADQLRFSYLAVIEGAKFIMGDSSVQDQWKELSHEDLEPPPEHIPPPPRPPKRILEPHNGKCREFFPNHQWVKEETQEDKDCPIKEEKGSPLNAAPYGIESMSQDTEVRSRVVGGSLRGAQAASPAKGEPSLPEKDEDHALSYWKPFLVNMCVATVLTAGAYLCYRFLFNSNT
# Experimental: as §2
# human PPARα receptor = target: T4, human PPARα receptor (Homo sapiens, UniProt Q07869); test: PPARα transactivation luciferase reporter gene assay in HEK-293 cells; conditions: upto 10 μM
# T4 sequence (Q07869 239-466 limits assumed): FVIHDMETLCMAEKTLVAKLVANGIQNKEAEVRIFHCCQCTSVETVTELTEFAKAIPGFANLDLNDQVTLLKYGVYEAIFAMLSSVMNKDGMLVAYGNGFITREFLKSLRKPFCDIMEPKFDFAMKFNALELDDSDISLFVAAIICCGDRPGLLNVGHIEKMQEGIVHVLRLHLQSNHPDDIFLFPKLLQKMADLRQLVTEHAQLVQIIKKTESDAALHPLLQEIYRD
# db/db mice [8] = test: Dose response experiment in db/db mice, twice daily dosing; type: in vivo; conditions: for weight gain / decrease in plasma glucose / decrease in plasma triglyceride: 5 mg/kg twice daily; for weight gain: 15 days; for decrease in plasma glucose / decrease in plasma triglyceride: day 15
# Experimental: The doses were given during 8.00-9.00 am and 5.00-6.00 pm daily. On day 15, blood was collected and plasma samples were analysed as described above.
# [9] = tested on: insulin resistant 3T3 adipocytes; test: Glucose uptake in dexamethasone-induced insulin resistant 3T3 adipocytes; type: cell-based; conditions: for EC50: Adipocyte, dose response, insulin resistant adipocytes, read-out: EC50 of increase in glucose uptake
# Experimental: Fully differentiated 3T3 adipocytes generated in 24-well plates were used after day 8 of differentiation. Insulin resistance was induced essentially as described before. Briefly, adipocytes were incubated with 100 nM dexamethasone for six consecutive days. […].
# Glucose uptake was measured essentially according to the method of Gao et al using ^14C-labeled 2-deoxy glucose as the tracer. Activity in this assay is defined as a statistically significant increase in glucose uptake of minimum 50% compared to the uptake seen in cells exposed to vehicle. Effect of wortmannin on glucose uptake was studied according to the method of Hausdorff et al using 100 nM wortmannin.
# 3T3-L1 cells = test: Adipogenesis screen; type: cell-based
# Experimental: Adipogenesis screening was carried out essentially according to the method of Choi et al. […] Compounds that caused increase in adipogenesis by more than 5-fold of vehicle (0.1% DMSO) were considered positive and were selected for further screening.
# [10] = tested on: panel of membrane receptors, ion channels and enzymes; test: Screen against a panel of membrane receptors, ion channels and enzymes
# [11] = 150 mg/kg oral once daily, day 10
# [12] = 150 mg/kg oral once daily, day 15
smiles,measurement,setting,value
O=S(=O)(Nc1cnc(Oc2cc3ccccc3cn2)c(Cl)c1)c1ccc(Cl)cc1Cl [P1736],PPARγ transactivation,human PPARγ receptor,no significant transactivation ability
same,lowering of plasma insulin levels,ob/ob mice [1],40%
same,normalized plasma volume,"Wistar rats; female rats, 100 mg/kg once daily 28 days, control 35.56 ± 1.46",30.91 ± 0.03 mL/kg
same,normalized plasma volume,"Wistar rats; female rats, 300 mg/kg once daily 28 days, control 35.56 ± 1.46",33.02 ± 0.28 mL/kg
same,normalized plasma volume,"Wistar rats; male rats, 100 mg/kg once daily 28 days, control 33.44 ± 1.52",31.55 ± 0.27 mL/kg
same,normalized plasma volume,"Wistar rats; male rats, 300 mg/kg once daily 28 days, control 33.44 ± 1.52",29.15 ± 0.02 mL/kg
same,effect on plasma volume or body weights,"Wistar rats; oral, 28 days, male and female normal Wistar rats",did not cause significant increase
same,GLUT-4 translocation to plasma membrane,GLUT-4; 10 µM,induced translocation; also recorded: complete translocation
same,decrease in plasma triglyceride,db/db mice [2]; [11],30%
same,reduction in plasma glucose,db/db mice [2]; [11],35%
same,decrease in plasma triglyceride,db/db mice [2]; [12],38%
same,reduction in plasma glucose,db/db mice [2]; [12],35%
same,plasma adiponectin levels,"db/db mice [2]; 150 mg/kg oral once daily, vehicle 7.5 ± 0.44",12.4 ± 0.33 µg/mL
same,effect on body weight,"db/db mice [2]; 150 mg/kg, 15 days",did not affect body weight
same,Liver weight,"db/db mice [2]; 150mg/kg, vehicle 1.8 + 0.10",2.1+ 0.10 gm
same,Plasma ALT,"db/db mice [2]; 150mg/kg, vehicle 91.2 + 12.7",99.0 + 8.5 U/L
same,Plasma AST,"db/db mice [2]; 150mg/kg, vehicle 100.6 + 8.8",84.6 + 2.6 U/L
same,reduction of high initial plasma glucose,"db/db mice [2]; db/db mice with high initial plasma glucose, 150 mg/kg once daily, 10 days",23%
same,Plasma Glucose (% Reduction),[3]; 1.0 mg/kg,34%
same,Glucose Uptake in soleus muscle (% Increase),[3]; 1.0 mg/kg,70%
same,Glucose Uptake in soleus muscle (% Increase),"[3]; 1.0 mg/kg, listed as P1736-05",70* %
same,Plasma Glucose (% Reduction),[3]; 5.0 mg/kg,35%
same,Glucose Uptake in soleus muscle (% Increase),[3]; 5.0 mg/kg,67%
same,Glucose Uptake in soleus muscle (% Increase),"[3]; 5.0 mg/kg, listed as P1736-05",67* %
same,activity against AMPK,[4],no significant activity
same,reduction in plasma glucose,"ob/ob mice [5]; 100 mg/kg twice daily, 10 days",30%
same,lowering of plasma insulin levels,"ob/ob mice [5]; 100 mg/kg, 10 days",50%
same,Liver weight,ob/ob mice [5]; 100mg/kg,4.6 ± 0.2 gm
same,Plasma AST,ob/ob mice [5]; 100mg/kg,547 ± 50 U/L
same,Plasma ALT,ob/ob mice [5]; 100mg/kg,857 ± 72 U/L
same,reduction in plasma glucose,"ob/ob mice [5]; 200 mg/kg twice daily, 10 days",32%
same,Liver weight,ob/ob mice [5]; 200mg/kg,4.4 ± 0.3 gm
same,Plasma AST,ob/ob mice [5]; 200mg/kg,470 ± 57 U/L
same,Plasma ALT,ob/ob mice [5]; 200mg/kg,668 ± 92 U/L
same,decrease in glucose,"ob/ob mice [5]; ob/ob mice, dose not stated (abstract)",30-35%
same,changes in body weight,ob/ob mice [5]; upto 200 mg/kg twice daily,did not induce adverse changes
same,inhibitory activity towards 11<beta>-Hydroxysteroid dehydrogenase-1,[6],50%
same,activity against PTP-1B,[7],no significant activity
same,PPARα transactivation,human PPARα receptor,did not activate
same,effect on plasma glucose and triglyceride levels over the dose range,"db/db mice [8]; 5 mg/kg to 200 mg/kg twice daily, EC50 could not be established",all the doses reduced plasma glucose and triglyceride levels
same,weight gain,db/db mice [8],did not exhibit any tendency towards weight gain
same,decrease in plasma glucose,db/db mice [8],40%
same,decrease in plasma triglyceride,db/db mice [8],32%
same,stimulation of glucose uptake after pretreatment with wortmannin,"[9]; 10 µM compound, 100 nM wortmannin for 30 minutes",abolished
same,increase in glucose uptake compared to insulin resistant vehicle,"[9]; 10 µM, 4 days exposure",more than 2 fold
same,EC50,[9],0.4 µM
same,result in adipogenesis screen,"3T3-L1 cells; 43 µM, positive = increase in adipogenesis by more than 5-fold of vehicle",positive
same,activity against panel targets,[10],no significant activity
"CN(CCOc1ccc(CC2SC(=O)NC2=O)cc1)c1ccccn1 (stereo not drawn) [Rosiglitazone, rosiglitazone maleate, reference compound]",lowering of plasma insulin levels,ob/ob mice [1],80%
same,GLUT-4 translocation to plasma membrane,GLUT-4; 0.1 µM,caused GLUT-4 translocation
same,Plasma Glucose (% Reduction),[3]; 5.0 mg/kg,49%
same,Glucose Uptake in soleus muscle (% Increase),[3]; 5.0 mg/kg,147** %
same,Glucose Uptake in soleus muscle (% Increase),"[3]; 5.0 mg/kg, listed as rosiglitazone",147%
same,weight gain,db/db mice [8],13%
same,decrease in plasma glucose,db/db mice [8],60%
same,decrease in plasma triglyceride,db/db mice [8],40%
same,decrease in plasma glucose,db/db mice [8]; listed as rosiglitazone,about 60%
same,EC50,[9],0.02 µM
same,effect on glucose uptake,[9]; rosiglitazone 0.1 µM,potentiated glucose uptake and re-sensitized the cells
same,adipogenesis,"3T3-L1 cells; 1.0 µM, positive control, vehicle induced 7-10%",> 90%
